Test results taken from ChEMBL document CHEMBL1150227, “A new dammarane-type triterpene glycoside from Polyscias fulva” (2001).
In brackets after ≈: the same amount, converted by molar mass.

Experiments:
Candida albicans = test: Antifungal activity against Candida albicans; type: functional
Cryptococcus neoformans = test: Antifungal activity against Cryptococcus neoformans; type: functional

## C[C@@H]1O[C@@H](O[C@H]2[C@H](O[C@H]3CC[C@@]4(C)[C@@H](CC[C@]5(C)[C@@H]4CC=C4[C@@H]6CC(C)(C)CC[C@]6(C(=O)O)CC[C@]45C)[C@]3(C)CO)OC[C@H](O)[C@@H]2O)[C@H](O)[C@H](O)[C@H]1O [ALPHA-HEDERIN]
Candida albicans
  MIC: 6.25 µg/mL (≈ 8.32 µM)
Cryptococcus neoformans
  MIC: 25 µg/mL (≈ 33.3 µM)
